Columns and labels:
Type in all cases: in vivo
[1] = test system: upland rice (Oryza sp., var.Tebonnet, RICE); experiment: Post-emerge greenhouse test, crop damage rating; conditions: 14 days after application, scale 0-100
Procedure, shortened: (§1)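 Scores use a 0 (no damage) to 100 (complete kill) scale, taken 14 days after a foliar spray. Acetone solutions with 0.25% v/v non-ionic surfactant were applied by track sprayer at 187 l/ha and 63-1000 g ai/ha to bottom-watered 2-3 leaf plants.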

[2] = test system: field corn (Zea mays L., var. Dekalb 535, CORN); experiment: Post-emerge greenhouse test, crop damage rating; conditions: 14 days after application, scale 0-100
Procedure, shortened: as §1

[3] = test system: soybean (Glycine max L., var. Pella 86, SOY); experiment: Post-emerge greenhouse test, crop damage rating; design: key to crop damage rating SOY: 0-100 scale: 0 = no damage, 100 = complete death of all plants; conditions: 14 days after application, scale 0-100
Procedure, shortened: as §1

[4] = test system: soybean (Glycine max L., var. Pella 86, SOY); experiment: Pre-emerge greenhouse test, crop damage rating; design: key to SOY crop damage rating: 0 = no damage, 100 = complete death of all plants; conditions: 14 days after application, rating scale 0-100
Procedure, shortened: (§2)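 Visual 0–100 injury rating (100 = all plants dead) taken 14 days after treatment. Rates of 125–1000 g ai/ha in acetone, 187 l/ha, were sprayed onto soil one day post-sowing; pots were surface-watered to incorporate, then bottom-watered.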

[5] = test system: upland rice (Oryza sp., var.Tebonnet, RICE); experiment: Pre-emerge greenhouse test, crop damage rating; conditions: 14 days after application, rating scale 0-100
Procedure, shortened: as §2

[6] = test system: field corn (Zea mays L., var. Dekalb 535, CORN); experiment: Pre-emerge greenhouse test, crop damage rating; conditions: 14 days after application, rating scale 0-100
Procedure, shortened: as §2

[7] = test system: common ragweed (Ambrosia artemisiifolia L., AMBEL); experiment: Post-emerge greenhouse herbicide test, phytotoxicity rating; conditions: 14 days after application, scale 0-100
Procedure, shortened: as §1

[8] = test system: ivyleaf morningglory (Ipomoea hederacea, IPOHE); experiment: as above; conditions: 14 days after application, scale 0-100
Procedure, shortened: as §1

[9] = test system: lambsquarters (Chenopodium album, CHEAL); experiment: as above; conditions: 14 days after application, scale 0-100
Procedure, shortened: as §1

[10] = test system: barnyardgrass (Echinochloa crusgalli, ECHCG); experiment: as above; conditions: 14 days after application, scale 0-100
Procedure, shortened: as §1

[11] = test system: redroot pigweed (Amaranthus retroflexus, AMARE); experiment: as above; conditions: 14 days after application, scale 0-100
Procedure, shortened: as §1

[12] = test system: Johnsongrass (Sorghum halepense, SORHA); experiment: as above; conditions: 14 days after application, scale 0-100
Procedure, shortened: as §1

[13] = test system: velvetleaf (Abutilon theophrasti, ABUTH); experiment: as above; conditions: 14 days after application, scale 0-100
Procedure, shortened: as §1

[14] = test system: sicklepod (Cassia obtusifolia, CASOB); experiment: as above; conditions: 14 days after application, scale 0-100
Procedure, shortened: as §1

[15] = test system: large crabgrass (Digitaria sanguinalis, DIGSA); experiment: as above; conditions: 14 days after application, scale 0-100
Procedure, shortened: as §1

[16] = test system: green foxtail (Setaria viridis, SETVI); experiment: as above; conditions: 14 days after application, scale 0-100
Procedure, shortened: as §1

[17] = test system: common ragweed (Ambrosia artemisiifolia L., AMBEL); experiment: Pre-emerge greenhouse herbicide test, phytotoxicity rating; conditions: 14 days after application, rating scale 0-100
Procedure, shortened: as §2

[18] = test system: ivyleaf morningglory (Ipomoea hederacea, IPOHE); experiment: as above; conditions: 14 days after application, rating scale 0-100
Procedure, shortened: as §2

[19] = test system: lambsquarters (Chenopodium album, CHEAL); experiment: as above; conditions: 14 days after application, rating scale 0-100
Procedure, shortened: as §2

[20] = test system: barnyardgrass (Echinochloa crusgalli, ECHCG); experiment: as above; conditions: 14 days after application, rating scale 0-100
Procedure, shortened: as §2

[21] = test system: redroot pigweed (Amaranthus retroflexus, AMARE); experiment: as above; conditions: 14 days after application, rating scale 0-100
Procedure, shortened: as §2

[22] = test system: Johnsongrass (Sorghum halepense, SORHA); experiment: as above; conditions: 14 days after application, rating scale 0-100
Procedure, shortened: as §2

[23] = test system: velvetleaf (Abutilon theophrasti, ABUTH); experiment: as above; conditions: 14 days after application, rating scale 0-100
Procedure, shortened: as §2

[24] = test system: sicklepod (Cassia obtusifolia, CASOB); experiment: as above; conditions: 14 days after application, rating scale 0-100
Procedure, shortened: as §2

[25] = test system: large crabgrass (Digitaria sanguinalis, DIGSA); experiment: as above; conditions: 14 days after application, rating scale 0-100
Procedure, shortened: as §2

[26] = test system: green foxtail (Setaria viridis, SETVI); experiment: as above; conditions: 14 days after application, rating scale 0-100
Procedure, shortened: as §2

SMILES: CCOC(=O)C(C)Oc1cc([N+](=O)[O-])c(Oc2cc(-n3c(=O)n4n(c3=S)CCCC4)c(F)cc2Cl)cc1Cl (stereo not shown) [Compound 8-38]
- crop damage rating RICE ([1]; rate 63 g ai/ha): 20
- crop damage rating RICE ([1]; rate 250 g ai/ha): 50
- crop damage rating CORN ([2]; rate 63 g ai/ha): 0
- crop damage rating CORN ([2]; rate 250 g ai/ha): 20
- crop damage rating SOY ([3]; rate 63 g ai/ha): 10
- crop damage rating SOY ([3]; rate 250 g ai/ha): 20
- SOY crop damage rating ([4]; Rate 125 g al/ha): 0
- SOY crop damage rating ([4]; Rate 250 g al/ha): 0
- RICE crop damage rating ([5]; Rate 125 g al/ha): 0
- RICE crop damage rating ([5]; Rate 250 g al/ha): 0
- CORN crop damage rating ([6]; Rate 125 g al/ha): 0
- CORN crop damage rating ([6]; Rate 250 g al/ha): 0
- phytotoxicity rating AMBEL ([7]; rate 63 g ai/ha): 20
- phytotoxicity rating AMBEL ([7]; rate 250 g ai/ha): 50
- phytotoxicity rating IPOHE ([8]; rate 63 g ai/ha): 40
- phytotoxicity rating IPOHE ([8]; rate 250 g ai/ha): 100
- phytotoxicity rating CHEAL ([9]; rate 63 g ai/ha): 40
- phytotoxicity rating CHEAL ([9]; rate 250 g ai/ha): 50
- phytotoxicity rating ECHCG ([10]; rate 63 g ai/ha): 0
- phytotoxicity rating ECHCG ([10]; rate 250 g ai/ha): 0
- phytotoxicity rating AMARE ([11]; rate 63 g ai/ha): 60
- phytotoxicity rating AMARE ([11]; rate 250 g ai/ha): 70
- phytotoxicity rating SORHA ([12]; rate 63 g ai/ha): 0
- phytotoxicity rating SORHA ([12]; rate 250 g ai/ha): 0
- phytotoxicity rating ABUTH ([13]; rate 63 g ai/ha): 100
- phytotoxicity rating ABUTH ([13]; rate 250 g ai/ha): 00
- phytotoxicity rating CASOB ([14]; rate 63 g ai/ha): 30
- phytotoxicity rating CASOB ([14]; rate 250 g ai/ha): 30
- phytotoxicity rating DIGSA ([15]; rate 63 g ai/ha): 0
- phytotoxicity rating DIGSA ([15]; rate 250 g ai/ha): 0
- phytotoxicity rating SETVI ([16]; rate 63 g ai/ha): 0
- phytotoxicity rating SETVI ([16]; rate 250 g ai/ha): 20
- AMBEL phytotoxicity rating ([17]; Rate 125 g al/ha): 0
- AMBEL phytotoxicity rating ([17]; Rate 250 g al/ha): 0
- IPOHE phytotoxicity rating ([18]; Rate 125 g al/ha): 0
- IPOHE phytotoxicity rating ([18]; Rate 250 g al/ha): 30
- CHEAL phytotoxicity rating ([19]; Rate 125 g al/ha): 80
- CHEAL phytotoxicity rating ([19]; Rate 250 g al/ha): 90
- ECHCG phytotoxicity rating ([20]; Rate 125 g al/ha): 0
- ECHCG phytotoxicity rating ([20]; Rate 250 g al/ha): 0
- AMARE phytotoxicity rating ([21]; Rate 125 g al/ha): 30
- AMARE phytotoxicity rating ([21]; Rate 250 g al/ha): 80
- SORHA phytotoxicity rating ([22]; Rate 125 g al/ha): 0
- SORHA phytotoxicity rating ([22]; Rate 250 g al/ha): 0
- ABUTH phytotoxicity rating ([23]; Rate 125 g al/ha): 100
- ABUTH phytotoxicity rating ([23]; Rate 250 g al/ha): 100
- CASOB phytotoxicity rating ([24]; Rate 125 g al/ha): 0
- CASOB phytotoxicity rating ([24]; Rate 250 g al/ha): 0
- DIGSA phytotoxicity rating ([25]; Rate 125 g al/ha): 0
- DIGSA phytotoxicity rating ([25]; Rate 250 g al/ha): 0
- SETVI phytotoxicity rating ([26]; Rate 125 g al/ha): 0
- SETVI phytotoxicity rating ([26]; Rate 250 g al/ha): 70

Reference: US6479435B1, “Diaryl ethers and processes for their preparation and herbicidal and desiccant compositions containing them” (ISK Americas Incorporated, priority 1997, dated 2002)
